From patent US20200155532A1, “METHOD FOR TREATING VIRAL INFECTIONS WITH LOPERAMIDE” (priority 2018, published 2020)

Test system: herpes viral infections
Assay: treating herpes outbreaks with loperamide taken by mouth
Assay type: in vivo
Settings: herpes outbreak; patient taking loperamide
Excerpt: Referring to FIG. 1, the present invention may include a new use of loperamide 100 as an anti-viral agent. Herpes, which erupts during stress and may include repeated flare-ups over, sometimes, weeks may be treated with the new use of loperamide 100 disclosed herein, which tends to eliminate this recycling when taken at every flare-up. Specifically, the new use 100 of loperamide as an anti-viral agent may have the following steps: at the onset of symptoms, the user takes the recommended amount at the recommended time intervals, such as two 2 mg loperamide tablets four or five times a day, in step 110; if pain persists, the user may review the dosage, in step 120; after 72 hours, when pain has subsided and blisters are gone or only thin scabs, the patient may discontinue use in step 130; magnesium hydroxide may be used for bowel function during treatment, in step 140; and in the case of a new flare-up, the user-patient may repeat the dosage cycle in step 150.

SMILES: CN(C)C(=O)C(CCN1CCC(O)(c2ccc(Cl)cc2)CC1)(c1ccccc1)c1ccccc1 [loperamide]
- effect on the virus's activity: stop the virus's activity
- time to full recovery: three
- time to stop the pain: ≤ 30 min
